Assay results as given in patent publication US8748497B2, “Optimized fluorocarbon emulsions for blood substitutes and other therapeutic uses” (Alliance Pharmaceutical Corp., priority 2006, dated 2014).
Where two headings read alike, the source gives them in different places.

How the values were obtained:
[1] = pharmacokinetics in blood after single intravenous administration of the emulsion of Ex. VI; assay type: in vivo, Sprague Dawley rats; details: for half-life: Sprague-Dawley, rat, iv; for half-life / AUC(o-last) / AUC(o-∞) / Cl: blood; for Vd: terminal phase
Text: (§1) This study was designed to assess the pharmokinetics and tissue distribution of PFOB and PFDB following a single intravenous administration of the emulsion of Ex. VI at various time intervals at dose levels of 1.8 and 3.6 g PFC/k in male and female Sprague Daley rats, aged 7-9 weeks, weight between 190-267 grams. For pharmacokinetics, 160 rats were divided into 20 groups (N=4 rats/sex/dose/time interval) and for tissue distribution, 156 rats were divided into 26 groups (n=3 rats/sex/dose/time interval). The time intervals for pharmacokinetics blood sampling were 0.083, 0.5, 1, 3, 6, 12, 36, 48, 72 and 96 hours. The time intervals for tissue sampling was predose, 24 hours, 1, 2, 4, 8, 13, 17, 21, 26, 39, 52 and 72 weeks.
Six pharmacokinetic parameters were determined following a single intravenous dose of 1.8 gPFC/kg or 3.6 g PFC/kg in both the male and female rats as shown in the tables below.

[2] = tissue distribution after single intravenous administration of the emulsion of Ex. VI, GC headspace; assay type: in vivo, Sprague Dawley rats; details: 24 hours; for concentration at 24 h: Sprague-Dawley, rat, intravenous
Text: as §1
26 groups (N=3 rats/sex/group). Prior to euthanasia, body weights were recorded. At designated times (see below), rats were anesthetized with METOFANE® and esanguinated via the abdominal artery. Blood was collected into syringes containing EDTA and transferred into sealed plastic containers for storage at approximately −20° C. until analyzed. Resultant data were included in the determination of pharmacokinetic parameters. The following tissues were collected from each rat and placed in sealed containers and stored frozen at −20° C. Prior to freezing, blood and tissue samples were processed for analysis. PFOB and PFDB were quantified in blood and tissues using a GC headspace method validated by Oread. The method was validated in the liver and then cross validated to all other tissues, blood, and serum. The tissues collected and analyzed include heart, lungs, abdominal fat, spleen, liver, mesenteric lymph nodes, kidneys, adrenals, testes, ovaries, uterus, whole brain, eyes, skeletal muscle, femoral bone marrow, and gastrointestinal tract.
The concentration of PFOB and PFDB was determined in the tissues in both sexes at 12 time points. For the males, this was a total of 360 individual results including blood. There were 24 additional results for the female.

[3] = Phase 1 pharmacokinetics in healthy human volunteers; assay type: in vivo; details: human, blood; for AUC(0-t) / half-life: intravenous; for AUC(0-t): read-out: AUC (0-336); for half-life: read-out: t1/2. 12 h (initial elimination half-life within the first 12 h post dose) (converted); for Cmax: iv, healthy volunteers
Procedure: Two randomised, controlled, double-blind, parallel group, Phase 1 studies were conducted in healthy human patients with the fluorocarbon emulsion made according to Example VI. Blood and expired air samples were analysed for PFOB and PFDB after a single intravenous dose of 1.2 or 1.8 g PFC/kg of the fluorocarbon emulsion of Example VI in healthy human volunteers to determine pharmacokinetics. Blood samples were collected up to 336 hours post-dosing.

[4] = pharmacokinetics in subjects undergoing noncardiac surgical procedures; assay type: in vivo, human; details: noncardiac surgery; for AUC(0-inf) / clearance / Cmax / half-life: human, whole blood; for clearance: read-out: CL (whole blood clearance) (converted); for Cmax: read-out: Cmax (maximum whole blood concentration); for half-life: read-out: T1/2 (elimination half-life) (converted)
Procedure: The pharmacokinetics of PFOB and PFDB were determined after the administration of the fluorocarbon emulsion of Example VI to subjects undergoing total hip replacement or spinal surgery or a variety of urologic and gynaecologic procedures including radical retropubic prostatectomy, radical hysterectomy, cystectomy and combined procedures. Human subjects in one study received either 0.9 g PFC/kg or 1.8 g PFC/kg of the fluorocarbon formulation of Example VI and those in a second study received 1.8 g PFC/kg of the fluorocarbon formulation of Example VI.

[5] = pharmacokinetics in subjects undergoing CABG surgery with hypothermic CPB; assay type: in vivo, human
Procedure: The pharmacokinetics of PFOB and PFDB were determined after the administration of the fluorocarbon formulation taught in Example VI to human subjects undergoing coronary artery bypass grafting or CABG surgery with hypothermic cardiopulmonary bypass. In group 1 and in group 2, human subjects received the fluorocarbon emulsion (2.7 g PFC/kg) as taught in Example VI directly into the bypass oxygenator after being put on bypass but before cooling was begun. In group 4, subjects received 2.7 g PFC/kg of the fluorocarbon emulsion of Example VI directly into the bypass oxygenator either prior to aortic cannulation or after being put on bypass, but before cooling was begun.

[6] = four compartment model; cited from earlier work
[7] = female rats, 1.8 g PFC/kg single iv
[8] = female rats, 3.6 g PFC/kg single iv
[9] = male rats, 1.8 g PFC/kg single iv
[10] = male rats, 3.6 g PFC/kg single iv
[11] = 1.2 g PFC/kg, Table VII, 1.2 g PFC/kg
[12] = 1.2 g PFC/kg, Table VIII, 1.2 g PFC/kg
[13] = 1.8 g PFC/kg, Table VII, 1.8 g PFC/kg
[14] = 1.8 g PFC/kg, Table VIII, 1.8 g PFC/kg

SMILES: FC(F)(F)C(F)(F)C(F)(F)C(F)(F)C(F)(F)C(F)(F)C(F)(F)C(F)(F)Br [PFOB, perfluorooctyl bromide]
- half-life ([1]; both sexes, 1.8 g/kg, male and female rats, 1.8 g PFC/kg, read-out: average terminal t1/2 (converted)): ~73 h
- half-life ([1]; both sexes, 3.6 g/kg, male and female rats, 3.6 g PFC/kg, read-out: average terminal t1/2 (converted)): 181 h
- AUC(o-last) [1, 7]: 126.86 mg·h/g
- AUC(o-∞) [1, 7]: 126.89 mg·h/g
- Cl [1, 7]: 5.41 g/h/kg
- Vd [1, 7]: 1605.67 g/kg
- AUC(o-last) [1, 8]: 541.55 mg·h/g
- AUC(o-∞) [1, 8]: 541.58 mg·h/g
- Cl [1, 8]: 6.70 g/h/kg
- Vd [1, 8]: 1182.97 g/kg
- half-life ([1]; female, 1.8 g/kg, female rats, 1.8 g PFC/kg single iv, last 3 or 4 data points, read-out: T1/2 (converted)): 78.5 h
- half-life ([1]; female, 3.6 g/kg, female rats, 3.6 g PFC/kg single iv, last 3 or 4 data points, read-out: T1/2 (converted)): 123 h
- AUC(o-last) [1, 9]: 122.65 mg·h/g
- AUC(o-∞) [1, 9]: 122.69 mg·h/g
- Cl [1, 9]: 6.01 g/h/kg
- Vd [1, 9]: 1443.18 g/kg
- AUC(o-last) [1, 10]: 566.13 mg·h/g
- AUC(o-∞) [1, 10]: 566.15 mg·h/g
- Cl [1, 10]: 8.93 g/h/kg
- Vd [1, 10]: 2191.83 g/kg
- half-life ([1]; male, 1.8 g/kg, male rats, 1.8 g PFC/kg single iv, last 3 or 4 data points, read-out: T1/2 (converted)): 68.2 h
- half-life ([1]; male, 3.6 g/kg, male rats, 3.6 g PFC/kg single iv, last 3 or 4 data points, read-out: T1/2 (converted)): 238 h
- concentration in the liver and bone marrow ([2]; all four groups): greater than 10 mg/g
- percent of dose in liver ([2]; female rats, 1.8 g PFC/kg): approximately 63%
- percent of dose in spleen ([2]; female rats, 1.8 g PFC/kg): approximately 4%
- percent of dose in liver ([2]; female rats, 3.6 g PFC/kg): approximately 53%
- percent of dose in spleen ([2]; female rats, 3.6 g PFC/kg): < 1%
- concentration at 24 h ([2]; female, females 1.8 g PFC/kg, all tissues except the blood, eyes, and skeletal muscle, read-out: concentration in tissues): > 100000 ng/g
- concentration at 24 h ([2]; female, females 3.6 g/kg of PFC, all tissues, read-out: concentration in tissues): > 100000 ng/g
- percent of dose in liver ([2]; male rats, 1.8 g PFC/kg): approximately 59%
- percent of dose in spleen ([2]; male rats, 1.8 g PFC/kg): < 1%
- percent of dose in liver ([2]; male rats, 3.6 g PFC/kg): approximately 69%
- concentration at 24 h ([2]; male, 3.6 g PFC/kg, males 3.6 PFC/kg, all tissues, read-out: concentration in tissues): > 100000 ng/g
- concentration at 24 h ([2]; male, males 1.8 g/kg of PFC, all tissues except the eyes and skeletal muscles, read-out: absolute concentration in tissues): > 100000 ng/g
- AUC(0-t) [3, 11]: 10.2 µg·h/mL
- half-life [3, 11]: 6.55 ± 2.06 h
- AUC(0-t) [3, 12]: 79200 µg·h/mL
- half-life [3, 12]: 5.41 h
- AUC(0-t) [3, 13]: 285000 µg·h/mL
- half-life [3, 13]: 10.5 ± 2.1 h
- AUC(0-t) [3, 14]: 239000 µg·h/mL
- half-life [3, 14]: 7.66 h
- Cmax ([3]; 1.2 g PFC/kg, Table VII, 1.2 g PFC/kg single iv): 13600 µg/mL
- Cmax ([3]; 1.2 g PFC/kg, Table VIII, 1.2 g PFC/kg single iv): 12600 µg/mL
- Cmax ([3]; 1.8 g PFC/kg, Table VII, 1.8 g PFC/kg single iv): 22700 µg/mL
- Cmax ([3]; 1.8 g PFC/kg, Table VIII, 1.8 g PFC/kg single iv): 21800 µg/mL
- AUC(0-inf) ([4]; 0.9 g PFC/kg): 13300 µg·h/mL
- clearance ([4]; 0.9 g PFC/kg): 0.0965 L/h/kg
- Cmax ([4]; 0.9 g PFC/kg): 7680 µg/mL
- half-life ([4]; 0.9 g PFC/kg): 2.36 ± 3.06 h
- AUC(0-inf) ([4]; 1.8 g PFC/kg): 57400 µg·h/mL
- clearance ([4]; 1.8 g PFC/kg): 0.0422 L/h/kg
- Cmax ([4]; 1.8 g PFC/kg): 17500 µg/mL
- half-life ([4]; 1.8 g PFC/kg): 3.77 ± 2.69 h
- whole blood concentration relative to PFDB [4]: approximately 30 fold
- whole blood concentration relative to PFDB [5]: ~30 fold
- AUC(0-inf) ([5]; human, whole blood, other: directly into the bypass oxygenator, 2.7 g PFC/kg): 300000 µg·h/mL
- clearance ([5]; human, whole blood, other: directly into the bypass oxygenator, 2.7 g PFC/kg, read-out: CL (whole blood clearance) (converted)): 0.00988 L/h/kg
- Cmax ([5]; human, whole blood, other: directly into the bypass oxygenator, 2.7 g PFC/kg, read-out: Cmax (maximum whole blood concentration)): 30300 µg/mL
- half-life ([5]; human, whole blood, other: directly into the bypass oxygenator, 2.7 g PFC/kg, read-out: T1/2 (elimination half-life) (converted)): 7.65 ± 2.71 h
- rate constant k10 [6]: ≈ 0.000 hr^−1
- rate constant k12 [6]: ≈ 0.04 hr^−1
- rate constant k24 [6]: ≈ 0.006 hr^−1
- rate constant k34 [6]: ≈ 0.002 hr^−1
- rate constant k40 [6]: ≈ 0.07 hr^−1
- rate constant k42 [6]: ≈ 0.002 hr^−1
